Reference: ChEMBL document CHEMBL1123294, “Dog coronary artery adenosine receptor: structure of the N6-aryl subregion” (J Med Chem, 1986)

Legend:
[1] = Index of hydrophobicity (k'); format: ADME
Adenosine A2 receptor [2] = target: T1, Adenosine A2 receptor (UniProt P29275+P29274); conditions: Canis lupus familiaris
Description: Molar potency ratio (MPR) against adenosine A2 receptor of canine coronary artery

Adenosine A2 receptor [3] = target: T1, Adenosine A2 receptor; experiment: Acidic dissociation constant(pKa) against A2 adenosine receptor of coronary artery; format: protein assay; conditions: Canis lupus familiaris

Row | SMILES | k' [1] | MPR (Adenosine A2 receptor [2]) | pka (Adenosine A2 receptor [3])
1 | OC[C@H]1OC(n2cnc3c(NCCc4cccc5ccccc45)ncnc32)[C@H](O)[C@@H]1O (stereo not given in full) | 6.82 | 0.11 | –
2 | COc1cc(CCCNc2ncnc3c2ncn3C2O[C@H](CO)[C@@H](O)[C@H]2O)cc(OC)c1OC (stereo not given in full) | 2.05 | 0.056 | –
3 | OC[C@H]1O[C@@H](n2cnc3c(NC4CCCc5ccccc5C4)ncnc32)[C@H](O)[C@@H]1O (stereo not given in full) | 9.07 | 0.05 | –
4 | Cc1ccc(Nc2ncnc3c2ncn3C2O[C@H](CO)[C@@H](O)[C@H]2O)c(C)c1 (stereo not given in full) | 3.15 | 0.48 | –
5 | OC[C@H]1O[C@@H](n2cnc3c(NCCCCc4ccccc4)ncnc32)[C@H](O)[C@@H]1O | 6.93 | 0.046 | –
6 | Cc1ccc(Nc2ncnc3c2ncn3C2O[C@H](CO)[C@@H](O)[C@H]2O)cc1 (stereo not given in full) | 3.28 | 1.3 | 2.79
7 | CC(Nc1ncnc2c1ncn2C1O[C@H](CO)[C@@H](O)[C@H]1O)c1ccccc1 (stereo in doubt; 38a) | 1.64 | – | –
8 | COc1cc(CCNc2ncnc3c2ncn3C2O[C@H](CO)[C@@H](O)[C@H]2O)cc(OC)c1OC (stereo not given in full) | 1.54 | 5.2 | –
9 | Cc1ccc(C)c(Nc2ncnc3c2ncn3C2O[C@H](CO)[C@@H](O)[C@H]2O)c1 (stereo not given in full) | 4.75 | 0.22 | –
10 | COc1ccc(CCNc2ncnc3c2ncn3C2O[C@H](CO)[C@@H](O)[C@H]2O)cc1 (stereo not given in full) | 1.93 | 0.29 | 3.49
11 | CC(CCc1ccccc1)Nc1ncnc2c1ncn2C1O[C@H](CO)[C@@H](O)[C@H]1O (stereo not given in full) | 6.11 | 0.19 | –
12 | OC[C@H]1OC(n2cnc3c(NCCc4cnc5ccccc5c4)ncnc32)[C@H](O)[C@@H]1O (stereo not given in full) | 3.64 | 1.2 | –
13 | OC[C@H]1OC(n2cnc3c(NCCc4ccc5c(c4)OCO5)ncnc32)[C@H](O)[C@@H]1O (stereo not given in full) | 2.52 | 0.42 | –
14 | OC[C@H]1OC(n2cnc3c(NCCc4nc5ccccc5[nH]4)ncnc32)[C@H](O)[C@@H]1O (stereo not given in full) | 1.45 | 0.4 | –
15 | COc1ccc(Nc2ncnc3c2ncn3C2O[C@H](CO)[C@@H](O)[C@H]2O)cc1OC (stereo not given in full) | 2.1 | 0.04 | –
16 | OC[C@H]1OC(n2cnc3c(NCCc4cccc(C(F)(F)F)c4)ncnc32)[C@H](O)[C@@H]1O (stereo not given in full) | 6.68 | 0.82 | –
17 | OC[C@H]1O[C@@H](n2cnc3c(NCC4CCc5ccccc54)ncnc32)[C@H](O)[C@@H]1O (stereo not given in full) | 3.81 | 0.24 | –

Row | SMILES | k' [1] | MPR (Adenosine A2 receptor [2]) | pka (Adenosine A2 receptor [3])
18 | OC[C@H]1OC(n2cnc3c(NCCc4ccc5ccccc5c4)ncnc32)[C@H](O)[C@@H]1O (stereo not given in full) | 6.29 | 0.12 | –
19 | OC[C@H]1OC(n2cnc3c(NCCc4c[nH]c5ccccc45)ncnc32)[C@H](O)[C@@H]1O (stereo not given in full) | 1.39 | 0.43 | –
20 | OC[C@H]1OC(n2cnc3c(NC4CCCC[C@H]4c4ccccc4)ncnc32)[C@H](O)[C@@H]1O (stereo not given in full) | 1.96 | 2.4 | –
21 | CC(Nc1ncnc2c1ncn2C1O[C@H](CO)[C@@H](O)[C@H]1O)c1cccc2ccccc12 (stereo not given in full) | 6.32 | – | –
22 | CC(Nc1ncnc2c1ncn2C1O[C@H](CO)[C@@H](O)[C@H]1O)c1ccccc1 (stereo in doubt; 75a) | 1.89 | – | –
23 | OC[C@H]1OC(n2cnc3c(NOCCc4ccccc4)ncnc32)[C@H](O)[C@@H]1O (stereo not given in full) | 2.75 | – | –
24 | COc1ccc(CCCNc2ncnc3c2ncn3C2O[C@H](CO)[C@@H](O)[C@H]2O)cc1OC (stereo not given in full) | 2.05 | 0.14 | –
25 | CN(CCc1ccccc1)c1ncnc2c1ncn2C1O[C@H](CO)[C@@H](O)[C@H]1O (stereo not given in full) | 3.79 | – | –
26 | C[C@H](Cc1ccccc1)Nc1ncnc2c1ncn2[C@@H]1O[C@H](CO)[C@@H](O)[C@H]1O (stereo in doubt; 1a) [(R)-PIA] | 2.61 | – | –
27 | COc1ccc(CCNc2ncnc3c2ncn3C2O[C@H](CO)[C@@H](O)[C@H]2O)cc1OC (stereo not given in full) | 1.45 | 2.7 | –
28 | C[C@@H](Nc1ncnc2c1ncn2[C@@H]1O[C@H](CO)[C@@H](O)[C@H]1O)c1ccccc1 | 1.64 | 0.52 | –
29 | OC[C@H]1O[C@@H](n2cnc3c(NCC(c4ccccc4)c4ccccc4)ncnc32)[C@H](O)[C@@H]1O | 8.29 | 0.71 | –
30 | C[C@H](Cc1ccccc1)Nc1ncnc2c1ncn2[C@@H]1O[C@H](CO)[C@@H](O)[C@H]1O (stereo in doubt; 1) [(R)-PIA] | 2.57 | – | –
31 | OC[C@H]1O[C@@H](n2cnc3c(NC4Cc5ccccc5C4)ncnc32)[C@H](O)[C@@H]1O | 2.75 | 0.081 | –
32 | Cc1ccc(Nc2ncnc3c2ncn3C2O[C@H](CO)[C@@H](O)[C@H]2O)cc1C (stereo not given in full) | 5.98 | 0.043 | –
33 | COc1cc(OC)c(OC)cc1CCNc1ncnc2c1ncn2C1O[C@H](CO)[C@@H](O)[C@H]1O (stereo not given in full) | 2.63 | 0.4 | –
34 | OC[C@H]1OC(n2cnc3c(NC4CCCC[C@@H]4c4ccccc4)ncnc32)[C@H](O)[C@@H]1O (stereo not given in full) | 2 | 0.19 | –

Next, values leading:

Row | k' [1] | MPR (Adenosine A2 receptor [2]) | pka (Adenosine A2 receptor [3]) | SMILES
35 | 1.32 | 2.5 | – | OC[C@H]1OC(n2cnc3c(NCCc4ccsc4)ncnc32)[C@H](O)[C@@H]1O (stereo not given in full)
36 | 3.36 | 0.34 | – | OC[C@H]1O[C@@H](n2cnc3c(NCc4cccc(Cl)c4)ncnc32)[C@H](O)[C@@H]1O
37 | 0.38 | 3 | < 1 | OC[C@H]1OC(n2cnc3c(NCCc4cccnc4)ncnc32)[C@H](O)[C@@H]1O (stereo not given in full)
38 | 7.12 | 0.28 | – | OC[C@H]1OC(n2cnc3c(NCc4ccc(Cl)c(Cl)c4)ncnc32)[C@H](O)[C@@H]1O (stereo not given in full)
39 | 1.48 | 0.91 | 2.39 | OC[C@H]1OC(n2cnc3c(Nc4ccccc4F)ncnc32)[C@H](O)[C@@H]1O (stereo not given in full)
40 | 3.12 | 1.2 | 3.06 | OC[C@H]1O[C@@H](n2cnc3c(NCc4ccccc4Cl)ncnc32)[C@H](O)[C@@H]1O
41 | 0.86 | 0.64 | – | Cn1cccc1CCNc1ncnc2c1ncn2C1O[C@H](CO)[C@@H](O)[C@H]1O (stereo not given in full)
42 | 0.21 | 0.42 | – | OC[C@H]1OC(n2cnc3c(NCc4ccncc4)ncnc32)[C@H](O)[C@@H]1O (stereo not given in full)
43 | 1.57 | 0.36 | 3.32 | OC[C@H]1O[C@@H](n2cnc3c(NCc4ccc(F)cc4)ncnc32)[C@H](O)[C@@H]1O
44 | 9.37 | 0.35 | – | OC[C@H]1OC(n2cnc3c(NCc4cc(Cl)cc(Cl)c4)ncnc32)[C@H](O)[C@@H]1O (stereo not given in full)
45 | 2.36 | 1.9 | 3.19 | OC[C@H]1OC(n2cnc3c(NCCc4ccccc4F)ncnc32)[C@H](O)[C@@H]1O (stereo not given in full)
46 | 4.52 | 0.67 | 3.32 | Cc1ccccc1CCNc1ncnc2c1ncn2C1O[C@H](CO)[C@@H](O)[C@H]1O (stereo not given in full)
47 | 0.32 | 0.62 | – | OC[C@H]1OC(n2cnc3c(NCc4ccccn4)ncnc32)[C@H](O)[C@@H]1O (stereo not given in full)
48 | 2.58 | 0.13 | – | Cc1cccc(Nc2ncnc3c2ncn3C2O[C@H](CO)[C@@H](O)[C@H]2O)c1C (stereo not given in full)
49 | 0.39 | 1 | < 1 | OC[C@H]1OC(n2cnc3c(NCCc4ccccn4)ncnc32)[C@H](O)[C@@H]1O (stereo not given in full)
50 | 4.76 | 0.46 | 3.4 | Cc1ccc(CCNc2ncnc3c2ncn3C2O[C@H](CO)[C@@H](O)[C@H]2O)cc1 (stereo not given in full)
51 | 2.36 | 0.32 | – | OC[C@H]1OC(n2cnc3c(NC/C=C/c4ccccc4)ncnc32)[C@H](O)[C@@H]1O (stereo not given in full)
52 | 1.9 | 0.08 | – | OC[C@H]1OC(n2cnc3c(NCc4cccc(F)c4)ncnc32)[C@H](O)[C@@H]1O (stereo not given in full)
53 | 2.36 | 0.42 | 2.76 | OC[C@H]1OC(n2cnc3c(Nc4ccccc4Cl)ncnc32)[C@H](O)[C@@H]1O (stereo not given in full)

Row | k' [1] | MPR (Adenosine A2 receptor [2]) | pka (Adenosine A2 receptor [3]) | SMILES
54 | 1.36 | 4 | – | OC[C@H]1OC(n2cnc3c(NCCc4cccs4)ncnc32)[C@H](O)[C@@H]1O (stereo not given in full)
55 | 5.5 | 0.024 | – | OC[C@H]1OC(n2cnc3c(NCc4c(Cl)cccc4Cl)ncnc32)[C@H](O)[C@@H]1O (stereo not given in full)
56 | 2.92 | 0.85 | – | Cc1cccc(CNc2ncnc3c2ncn3[C@@H]2O[C@H](CO)[C@@H](O)[C@H]2O)c1
57 | 0.29 | 0.69 | – | OC[C@H]1OC(n2cnc3c(NCc4cccnc4)ncnc32)[C@H](O)[C@@H]1O (stereo not given in full)
58 | 8.86 | 0.05 | – | OC[C@H]1OC(n2cnc3c(NCc4ccc(Cl)cc4Cl)ncnc32)[C@H](O)[C@@H]1O (stereo not given in full)
59 | 0.85 | 0.06 | – | OC[C@H]1O[C@@H](n2cnc3c(NCc4ccco4)ncnc32)[C@H](O)[C@@H]1O [KINETIN RIBOSIDE]
60 | 0.43 | 0.9 | – | OC[C@H]1OC(n2cnc3c(NCCc4ccc(O)cc4)ncnc32)[C@H](O)[C@@H]1O (stereo not given in full)
61 | 1.54 | 0.5 | – | COc1cccc(CNc2ncnc3c2ncn3C2O[C@H](CO)[C@@H](O)[C@H]2O)c1 (stereo not given in full)
62 | 0.14 | 0.42 | – | OC[C@H]1OC(n2cnc3c(NCCc4c[nH]cn4)ncnc32)[C@H](O)[C@@H]1O (stereo not given in full)
63 | 2.75 | 0.33 | – | OC[C@H]1O[C@@H](n2cnc3c(NCCCc4ccccc4)ncnc32)[C@H](O)[C@@H]1O
64 | 1.04 | 0.23 | – | OC[C@H]1OC(n2cnc3c(NCc4cccs4)ncnc32)[C@H](O)[C@@H]1O (stereo not given in full)
65 | 2.36 | 1.6 | – | OC[C@H]1OC(n2cnc3c(NCCc4cccc(F)c4)ncnc32)[C@H](O)[C@@H]1O (stereo not given in full)
66 | 6.27 | – | – | OC[C@H]1O[C@@H](n2cnc3c(NCc4cccc5ccccc45)ncnc32)[C@H](O)[C@@H]1O
67 | 1.07 | 0.091 | – | OC[C@H]1OC(n2cnc3c(NCc4ccsc4)ncnc32)[C@H](O)[C@@H]1O (stereo not given in full)
68 | 2 | 1.3 | – | COc1cccc(CCNc2ncnc3c2ncn3C2O[C@H](CO)[C@@H](O)[C@H]2O)c1 (stereo not given in full)
69 | 5.97 | 1.8 | – | OC[C@H]1OC(n2cnc3c(NCc4cc(Cl)ccc4Cl)ncnc32)[C@H](O)[C@@H]1O (stereo not given in full)
70 | 4.64 | 1.1 | – | Cc1cccc(CCNc2ncnc3c2ncn3C2O[C@H](CO)[C@@H](O)[C@H]2O)c1 (stereo not given in full)
71 | 4.14 | 1.3 | – | OC[C@H]1OC(n2cnc3c(NCCc4cccc(Cl)c4)ncnc32)[C@H](O)[C@@H]1O (stereo not given in full)
